Test results: patent US8648065B2, “Antibacterial medicinal composition of enhanced oral absorptivity” (Meiji Seika Pharma Co., Ltd., priority 2002, dated 2014)

Test: Oral absorbability of cefditoren pivoxil suspensions in dogs
Format: in vivo
Conditions: suspension of crystals as compared to an amorphous suspension
From the text: On the other hand, since amorphous cefditoren pivoxil is apt to change into a crystalline state in a solution, an antibiotic pharmaceutical composition comprising amorphous cefditoren pivoxil still needs to be improved.

CO/N=C(\C(=O)N[C@@H]1C(=O)N2C(C(=O)OCOC(=O)C(C)(C)C)=C(/C=C\c3scnc3C)CS[C@H]12)c1csc(N)n1 [cefditoren pivoxil, (−)-(6R,7R)-7-[(Z)-2-(2-aminothiazol-4-yl)-2-methoxyiminoacetamido]-3-[(Z)-2-(4-methylthiazol-5-yl)ethenyl]-8-oxo-5-thia-1-azabicyclo[4.2.0]oct-2-ene-2-carboxylic acid 2,2-dimethylpropionyloxymethyl ester]
Oral absorbability in dogs (in words): extremely low oral absorbability
